Data reported in US7041844B2, “Irreversible non-steroidal antagonist compound and its use in the treatment of prostate cancer” (The University Of Tennessee Research Corporation, priority 1996, dated 2006).

Key:
rat prostate AR = biological target: T1, rat prostate AR (Rattus norvegicus, UniProt P15207); assay: Saturation binding of 3H-MIB in the AR preparation (Scatchard analysis)
T1 sequence (P15207 1-902): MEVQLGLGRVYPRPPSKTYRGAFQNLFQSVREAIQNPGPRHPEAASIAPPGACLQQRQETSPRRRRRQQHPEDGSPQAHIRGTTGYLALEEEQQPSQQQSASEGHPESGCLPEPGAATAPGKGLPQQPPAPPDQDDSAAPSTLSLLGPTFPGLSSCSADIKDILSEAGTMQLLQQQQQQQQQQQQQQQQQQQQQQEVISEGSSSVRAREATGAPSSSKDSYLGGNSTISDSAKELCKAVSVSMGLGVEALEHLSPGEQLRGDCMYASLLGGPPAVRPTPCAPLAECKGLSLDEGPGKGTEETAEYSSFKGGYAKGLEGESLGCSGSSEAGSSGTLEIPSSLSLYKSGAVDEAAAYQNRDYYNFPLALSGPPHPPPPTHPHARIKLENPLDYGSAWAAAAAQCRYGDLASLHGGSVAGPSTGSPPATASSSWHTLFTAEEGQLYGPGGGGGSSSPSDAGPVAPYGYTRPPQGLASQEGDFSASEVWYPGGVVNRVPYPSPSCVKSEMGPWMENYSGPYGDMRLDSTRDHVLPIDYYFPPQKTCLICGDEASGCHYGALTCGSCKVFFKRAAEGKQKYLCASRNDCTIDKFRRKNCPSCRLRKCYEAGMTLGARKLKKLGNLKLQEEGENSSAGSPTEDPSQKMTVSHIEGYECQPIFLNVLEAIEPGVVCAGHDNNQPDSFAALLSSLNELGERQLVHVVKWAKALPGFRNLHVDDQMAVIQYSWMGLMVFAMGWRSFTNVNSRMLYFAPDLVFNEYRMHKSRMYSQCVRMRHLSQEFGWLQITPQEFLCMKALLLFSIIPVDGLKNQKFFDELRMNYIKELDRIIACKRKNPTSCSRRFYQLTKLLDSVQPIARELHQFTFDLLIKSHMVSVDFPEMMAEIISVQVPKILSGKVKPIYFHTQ

rat ventral prostate AR = biological target: T2, rat ventral prostate AR (Rattus norvegicus, UniProt P15207); assay: Competitive displacement of 3H-MIB from AR binding sites; conditions: comparison of Ki values
T2 construct: from tissue; host or cells: ventral prostate cytosol of castrated male Sprague-Dawley rats
T2 sequence (P15207 1-902): T1 sequence (P15207 1-902)
Protocol: Receptor binding studies for the compounds shown in Table 3 were conducted as follows.
1. AR were isolated from rat ventral prostate tissue by differential centrifugation.
2. Samples of the following composition listed in Table 4 were incubated at 4° C. for 18 hours:
Percent Specific Binding=(B/B0)×100
Data were computer fitted to the equation: […]
Equilibrium dissociation constant of each isomer (Ki) was determined using the equation.
AR isolation was performed as follows.

SMILES	Kd (rat prostate AR) [nM]	AR binding affinity (result in words) (rat ventral prostate AR)
C[C@@H]1CC2=CC(=O)CC[C@@H]2[C@H]2CC[C@@]3(C)[C@@H](CC[C@]3(C)O)[C@@H]21 [MIB, Mibolerone]	0.182	–
O=C(CCl)NS[N+](=O)[O-] [S-NT-CAA, S-nitro-thio chloroacetamide]	–	close to that of S-Casodex
O=[N+]([O-])SN=C=S [S-NT-NCS, S-nitro-thio-isothiocyanate]	–	close to that of S-Casodex
